Several values for one entry are separate records, joined by “and”; a condition that tells them apart may be missing. Equal values may be shown once. Read-outs that look alike come from different tables or passages of the source.
How the values were obtained:
[1] = target: HDAC2 (Homo sapiens (Human), UniProt Q92769); experiment: HDAC fluorimetric activity assay (Fluor-de-Lys); assay type: biochemical
[2] = target: HDAC1 (Homo sapiens (Human), UniProt Q13547); experiment: HDAC fluorimetric activity assay (Fluor-de-Lys); assay type: biochemical; conditions: recombinant HDAC1
Procedure: (§1) The HDAC activity was performed using the HDAC fluorescent activity assay kit (BIOMOL, Plymouth Meeting, Pa., USA) according to the manufacturer's instructions. Briefly, recombinant proteins of HDAC1 or HDAC6 were incubated with test compounds, and HDAC reaction was initiated by addition of Fluor-de-Lys substrate. Samples were incubated for 10 min at room temperature, followed by adding developer to stop the reaction. Fluorescence was measured by fluorometric reader with excitation at 360 nm and emission at 460 nm. The HDAC activity was expressed as arbitrary fluorescence units (AFU). The HDAC activity was calculated as a percentage of activity compared with the control group. The half maximal inhibitory concentration (IC50) values for the test compounds were calculated from software SigmaPlot.
(§2) HDAC fluorometric activity assay was performed using Fluor-de-Lys as the substrate (BIOMOL, Plymouth Meeting, Pa., USA), and HMGR inhibition was evaluated by the […].

[3] = target: HDAC6 (Homo sapiens (Human), UniProt Q9UBN7); experiment: HDAC fluorimetric activity assay (Fluor-de-Lys); assay type: biochemical; conditions: recombinant HDAC6
Procedure: as §1, §2

[4] = target: HMG-CoA reductase (HMGR) (Homo sapiens (Human), UniProt P04035); experiment: HMG-CoA reductase activity assay (NADPH consumption, Sigma kit); assay type: biochemical; conditions: for IC50: human recombinant protein; for HMGR inhibition (in words): enzyme-based
Procedure: (§3) The HMGR activity was performed using HMG-CoA reductase assay kit from Sigma-Aldrich with the human recombinant protein or 100 μg total cell lysates from A549 cells. […] HMGR activity under defined assay conditions, containing NADPH and HMG-CoA substrate in a final volume of 0.2 mL of 100 mM potassium phosphatate buffer (120 mM KCl, 1 mM EDTA, 5 mM DTT, pH 7.4), were initiated in the presence or absence (control) of test compounds dissolved in dimethylsulfoxide (DMSO). The rates of NADPH consumption were monitored every 20 seconds, for up to 10 minutes, by spectrophotometer at 37° C. and 340 nm. The HMGR activity was calculated as a percentage of activity compared with the control group at 5 min. The IC50 values were calculated from software SigmaPlot.
as §2

[5] = test system: MEF normal mouse fibroblast cells; experiment: cells; assay type: cell-based; conditions: for cytotoxicity on MEF normal cells (in words) / IC50: 72 h; for cytotoxicity on MEF normal cells (in words): MTT, FIG. 4C/4D; for toxicity to normal cells at 100 μM: MEF; for IC50: MTT assay; for SI A549/MEF (selectivity index): ratio of IC50 values, cancer cell and normal cell
Procedure: (§4) The cell viability was measured by MTT assay.
(§5) A549 human lung carcinoma cells from American Type Culture Collection (ATCC) were cultured in Dulbecco's Modified Eagle Medium (DMEM). […] All mediums were supplemented with 10% fetal bovine serum (FBS), 100 U/mL penicillin G and 100 mg/mL streptomycin sulfate. Cells were maintained in a humidified incubator containing 5% CO2 in air. Cells were subcultured by trypsinization in laminar flow when grew about 80% in the culture dishes.
(§6) A549 cells were seeded at 3000 cells/well in 96-well plates and maintained for 14-16 hours. Cells were treated with dimethylsulfoxide DMSO or test compounds in varied concentrations for 72 h. Cells were then washed with PBS twice, added a medium containing 3-(4,5-dimethylthiazol-2-yl)-2,5-diphenyltetrazolium bromide (MTT) at a final concentration of 0.5 mg/mL, and incubated for 4 h at 37° C. in a humidified incubator containing 5% CO2 in air. Cells having functional succinate dehydrogenase of mitochondria would convert MTT to formazan. Then, the medium was replaced with 100 μL of DMSO for 30 min at room temperature, and the 96-well plate was read by an ELISA reader at 550 nm to get the absorbance density values. The IC50 values of death cell lines were calculated accordingly.

[6] = test system: A549 human lung cancer cells; experiment: Cell proliferation (MTT) assay, cancer cells; conditions: for cell viability of A549 (in words): MTT, FIG. 4A/4D
Procedure: as §4, §5, §6

[7] = test system: HS68 normal human fibroblast cells; experiment: cells; assay type: cell-based; conditions: for cytotoxicity on HS68 normal cells (in words) / IC50: 72 h; for cytotoxicity on HS68 normal cells (in words): MTT, FIG. 4B/4D; for toxicity to normal cells at 100 μM: HS68, 100 μM; for IC50: MTT assay
Procedure: as §4, §5, §6

[8] = test system: AOM/DSS-induced colitis-associated colorectal cancer; experiment: AOM/DSS colitis-associated colorectal cancer model, chemoprevention
Description: All mice were sacrificed at 9 weeks and colon segments were fixed by formalin.
Male C57BL6 mice obtained at 4-5 weeks of age were divided into four groups. […] All mice were sacrificed after 9 weeks and colon segments were fixed in formalin. H&E stain colonic sections were examined for colonic aberrant crypts.
The formation of polyps and colonic tumors were macroscopically observed and counted.

[9] = test system: AOM/DSS-induced colitis-associated colorectal cancer; experiment: AOM/DSS colitis-associated colorectal cancer model, treatment after AOM/DSS; conditions: for AOM/DSS-induced weight loss / clinical symptoms: oral 100 mg/kg, 5 days a week for 3 weeks after AOM/DSS; for histological examination of colon: treatment after AOM/DSS
Procedure: Lova-HA and Atorva-HA were dissolved in corn oil. Lova-HA (100 mg/kg), Atorva-HA (100 mg/kg) or the vehicle (corn oil) was orally administered after AOM/DSS treatment 5 days a week for 3 weeks. All mice were sacrificed after 12 weeks and colon segments were fixed in formalin.
To further investigate whether Lova-HA and Atorva-HA can treat cancer, a C57/BL6 mouse model of colitis-associated CRC was performed after the AOM and 3 cycles of DSS treatment. […] The formation of polyps and colonic tumors were macroscopically observed and counted.

[10] = test system: acetyl-histone H3 and acetyl-tubulin in A549 lung cancer cells; experiment: Western blot of acetyl-histone H3 and acetyl-tubulin; assay type: cell-based, human; conditions: dose-dependent, FIG. 2
Procedure: FIG. 2 is a photo showing the effect of test compounds on acetylation of histone H3 and tubulin in A549 lung cancer cell lines. […] A549 cells were treated with the indicated doses of test compounds. Total cell lysates were prepared and subjected to SDS-PAGE using adequate percentage of polyacrylamide gels. Immunoblotting was performed using specific antibodies to evaluate the expression of different proteins.
Following treatment with test compounds, cells were lysed on ice. Total cell lysates were centrifuged at 13,000 rpm for 15 min at 4° C., and then subjected to SDS-PAGE using adequate percentage polyacrylamide gels. Immunoblotting was performed using specific antibodies to evaluate the expression of different proteins.
A549 lung cancer cells were treated with the test compound, and the expression of acetyl-histone H3 and acetyl-tubulin were analyzed by SDS-PAGE using immunoblotting.

[11] = target: HMG-CoA reductase in A549 lung cancer cells (Homo sapiens (Human), UniProt P04035); experiment: Cell-based assay of HMGR inhibition (cell lysates); conditions: A549 cells treated 24 hours, FIG. 3
Procedure: as §3

[12] = Homo sapiens, A549, 72 h, read-out: IC50 (μM) A549, 72 h, MTT assay

Sequence of HMG-CoA reductase (HMGR) (P04035 426-888): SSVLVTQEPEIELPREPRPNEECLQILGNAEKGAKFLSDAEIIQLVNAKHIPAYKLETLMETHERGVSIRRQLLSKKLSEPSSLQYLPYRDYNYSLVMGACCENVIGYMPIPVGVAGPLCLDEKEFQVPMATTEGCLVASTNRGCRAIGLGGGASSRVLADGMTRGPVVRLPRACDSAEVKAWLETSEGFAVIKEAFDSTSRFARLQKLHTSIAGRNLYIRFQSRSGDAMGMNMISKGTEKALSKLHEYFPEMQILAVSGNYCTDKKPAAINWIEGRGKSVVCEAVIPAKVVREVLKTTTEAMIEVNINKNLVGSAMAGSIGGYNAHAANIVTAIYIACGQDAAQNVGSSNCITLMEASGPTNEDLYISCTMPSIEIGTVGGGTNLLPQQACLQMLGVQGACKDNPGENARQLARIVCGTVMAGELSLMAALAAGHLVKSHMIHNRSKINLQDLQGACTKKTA
Sequence of HDAC1 (Q13547 whole entry): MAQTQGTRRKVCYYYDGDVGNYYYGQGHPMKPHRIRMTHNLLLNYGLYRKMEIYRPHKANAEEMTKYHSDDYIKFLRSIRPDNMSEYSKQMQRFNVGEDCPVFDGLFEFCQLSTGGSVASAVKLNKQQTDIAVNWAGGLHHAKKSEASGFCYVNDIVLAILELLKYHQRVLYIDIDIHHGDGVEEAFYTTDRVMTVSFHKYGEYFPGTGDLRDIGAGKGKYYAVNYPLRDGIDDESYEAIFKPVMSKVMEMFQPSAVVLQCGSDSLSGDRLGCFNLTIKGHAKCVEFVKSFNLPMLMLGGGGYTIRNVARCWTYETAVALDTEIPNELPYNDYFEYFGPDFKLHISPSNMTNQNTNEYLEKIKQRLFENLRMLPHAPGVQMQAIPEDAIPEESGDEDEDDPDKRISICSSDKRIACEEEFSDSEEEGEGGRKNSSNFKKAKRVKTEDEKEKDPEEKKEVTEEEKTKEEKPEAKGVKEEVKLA
Sequence of HDAC2 (Q92769 whole entry): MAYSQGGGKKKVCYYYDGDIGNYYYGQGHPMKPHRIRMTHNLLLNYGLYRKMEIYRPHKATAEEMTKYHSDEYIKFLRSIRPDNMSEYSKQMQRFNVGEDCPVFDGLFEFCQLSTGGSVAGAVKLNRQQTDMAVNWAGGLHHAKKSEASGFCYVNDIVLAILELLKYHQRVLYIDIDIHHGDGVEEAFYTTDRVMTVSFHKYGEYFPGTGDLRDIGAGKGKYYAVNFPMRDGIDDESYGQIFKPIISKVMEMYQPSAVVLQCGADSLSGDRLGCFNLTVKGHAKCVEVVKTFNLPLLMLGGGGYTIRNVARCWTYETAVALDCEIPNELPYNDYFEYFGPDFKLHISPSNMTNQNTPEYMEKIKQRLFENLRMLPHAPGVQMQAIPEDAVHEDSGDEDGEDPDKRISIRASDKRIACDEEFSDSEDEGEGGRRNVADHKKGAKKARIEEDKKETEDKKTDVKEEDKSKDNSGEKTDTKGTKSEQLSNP
Sequence of HDAC6 (Q9UBN7 whole entry): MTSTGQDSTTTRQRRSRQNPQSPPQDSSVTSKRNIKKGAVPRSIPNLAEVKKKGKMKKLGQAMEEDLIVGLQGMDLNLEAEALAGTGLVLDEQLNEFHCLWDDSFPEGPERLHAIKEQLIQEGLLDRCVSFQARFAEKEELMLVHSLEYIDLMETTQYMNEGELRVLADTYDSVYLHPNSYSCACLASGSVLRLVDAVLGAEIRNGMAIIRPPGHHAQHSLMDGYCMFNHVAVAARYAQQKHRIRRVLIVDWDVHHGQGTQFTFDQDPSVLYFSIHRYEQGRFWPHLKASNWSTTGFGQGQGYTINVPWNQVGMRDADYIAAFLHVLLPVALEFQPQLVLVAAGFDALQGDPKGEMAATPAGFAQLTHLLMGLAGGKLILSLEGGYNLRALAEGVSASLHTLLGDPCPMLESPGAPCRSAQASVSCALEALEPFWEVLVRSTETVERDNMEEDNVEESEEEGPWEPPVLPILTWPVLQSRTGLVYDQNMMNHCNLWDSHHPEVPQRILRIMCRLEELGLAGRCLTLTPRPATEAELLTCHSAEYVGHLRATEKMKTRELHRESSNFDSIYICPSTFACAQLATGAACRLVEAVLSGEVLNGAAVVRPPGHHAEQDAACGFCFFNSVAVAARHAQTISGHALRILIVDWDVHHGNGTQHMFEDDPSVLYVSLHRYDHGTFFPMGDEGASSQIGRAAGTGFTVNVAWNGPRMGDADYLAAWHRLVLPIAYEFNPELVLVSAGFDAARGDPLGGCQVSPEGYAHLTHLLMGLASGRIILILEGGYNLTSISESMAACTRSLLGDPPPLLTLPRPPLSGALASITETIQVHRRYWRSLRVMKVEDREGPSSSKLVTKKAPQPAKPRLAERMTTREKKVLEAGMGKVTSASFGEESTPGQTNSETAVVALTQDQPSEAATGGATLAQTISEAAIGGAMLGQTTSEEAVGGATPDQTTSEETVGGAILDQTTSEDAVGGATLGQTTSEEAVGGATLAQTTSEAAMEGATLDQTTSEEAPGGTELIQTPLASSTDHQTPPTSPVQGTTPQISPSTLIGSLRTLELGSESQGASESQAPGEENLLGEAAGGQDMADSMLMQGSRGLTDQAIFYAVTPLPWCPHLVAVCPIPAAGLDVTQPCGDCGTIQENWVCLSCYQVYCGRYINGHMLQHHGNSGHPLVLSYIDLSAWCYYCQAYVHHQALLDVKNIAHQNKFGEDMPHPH
Sequence of HMG-CoA reductase in A549 lung cancer cells (P04035 whole entry): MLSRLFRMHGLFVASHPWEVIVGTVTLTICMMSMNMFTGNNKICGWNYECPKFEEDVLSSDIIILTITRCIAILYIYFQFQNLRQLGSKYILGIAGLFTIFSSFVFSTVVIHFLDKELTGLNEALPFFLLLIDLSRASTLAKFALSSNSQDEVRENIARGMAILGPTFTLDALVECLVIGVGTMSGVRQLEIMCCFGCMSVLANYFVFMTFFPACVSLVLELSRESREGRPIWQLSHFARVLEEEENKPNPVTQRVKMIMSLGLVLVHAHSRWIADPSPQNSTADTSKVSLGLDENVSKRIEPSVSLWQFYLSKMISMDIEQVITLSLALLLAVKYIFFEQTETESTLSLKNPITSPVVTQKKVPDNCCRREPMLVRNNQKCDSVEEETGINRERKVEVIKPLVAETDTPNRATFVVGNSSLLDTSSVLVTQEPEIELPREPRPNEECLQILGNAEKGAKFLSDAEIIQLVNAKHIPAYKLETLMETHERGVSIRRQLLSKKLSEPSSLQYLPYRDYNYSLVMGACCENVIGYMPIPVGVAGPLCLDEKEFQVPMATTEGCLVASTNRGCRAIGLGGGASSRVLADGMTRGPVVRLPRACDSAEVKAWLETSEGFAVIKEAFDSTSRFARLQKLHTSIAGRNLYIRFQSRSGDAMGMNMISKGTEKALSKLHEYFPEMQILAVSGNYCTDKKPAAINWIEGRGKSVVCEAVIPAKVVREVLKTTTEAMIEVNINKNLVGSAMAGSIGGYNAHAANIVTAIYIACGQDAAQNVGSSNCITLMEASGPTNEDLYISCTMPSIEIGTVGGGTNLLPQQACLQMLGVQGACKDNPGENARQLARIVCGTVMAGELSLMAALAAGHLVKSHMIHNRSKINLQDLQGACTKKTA

Row | SMILES | IC50 [1] | IC50 [2] | IC50 [3] | IC50 [4] | cytotoxicity on MEF normal cells (in words) [5] | toxicity to normal cells at 100 μM [5] | IC50 ([5]; Mus musculus, Fibroblast) | SI A549/MEF (selectivity index) [5] | IC50 [6, 12] | cytotoxicity on HS68 normal cells (in words) [7] | toxicity to normal cells at 100 μM [7] | IC50 ([7]; Homo sapiens, Hs68) | AOM/DSS-induced weight loss [9] | clinical symptoms [9] | histological examination of colon [9] | HMGR inhibition (in words) [4] | further results
1 | CCC(C)C(=O)O[C@H]1C[C@@H](C)C=C2C=C[C@H](C)[C@H](CC[C@@H](O)C[C@@H](O)CC(=O)NO)[C@H]21 (some centres unmarked) [Lova-HA] | 468 ± 27.2 nM | 60.1 ± 5.3 nM | 50.5 ± 4 nM | 16.8 ± 1.9 nM | did not have cytotoxicity | not toxic | > 100 µM | >5.6 | < 20 µM | did not have cytotoxicity | not toxic | > 100 µM |  |  |  |  | IC50 ([6]; read-out: IC50 (μM) A549, 72 h, MTT assay, listed as Lova-HA (1)): 18.2 ± 3.4 µM; colon length ([8]; 25 mg/kg oral): 8.6±0.4 cm; colon length ([8]; 50 mg/kg oral): 10.1±0.9 cm
2 | CC(C)c1c(C(=O)Nc2ccccc2)c(-c2ccccc2)c(-c2ccc(F)cc2)n1CC[C@@H](O)C[C@@H](O)CC(=O)O [Atorvastatin, atorvastatin] |  |  |  |  |  |  | 30.7 ± 3.2 µM |  |  |  |  |  | could not protect | not reversed | adenocarcinomas with dysplasia |  | 
3 | CC(C)c1nc(N(C)S(C)(=O)=O)nc(-c2ccc(F)cc2)c1/C=C/[C@@H](O)C[C@@H](O)CC(=O)NO [Rosuva-HA, (3R,5S,6E)-7-[4-(4-fluorophenyl)-2-(N-methylmethanesulfonamido)-6-isopropylpyrimidin-5-yl]-3,5-dihydroxy-N-hydroxy-6-heptenamide] | 400 to 630 nM and 600 nM | 125 ± 7.1 nM | 133 ± 5.5 nM | 43.7 ± 1.6 nM |  |  |  |  |  |  |  |  |  |  |  | potent HMGR inhibition | acetylation of histone H3 and tubulin [10]: promoted the acetylations of histone and tubulin
4 | CCC(C)(C)C(=O)O[C@H]1C[C@@H](C)C=C2C=C[C@H](C)[C@H](CC[C@@H](O)C[C@@H](O)CC(=O)NO)[C@H]21 [Simva-HA, (3R,5R)-7-{(1S,2S,6R,8S,8aR)-Hexahydro-2,6-dimethyl-8-[2-dimethylbutyryloxy]naphthalenyl}-3,5-dihydroxy-N-hydroxyheptanamide] | 400 to 630 nM | 60.7 ± 3.2 nM | 67.1 nM | 11.4 nM | did not have cytotoxicity | not toxic | > 100 µM | >5.0 | < 20 µM | did not have cytotoxicity | not toxic | > 100 µM |  |  |  |  | IC50 ([6]; read-out: IC50 (μM) A549, 72 h, MTT assay, listed as Simva-HA (2)): 20 ± 3.1 µM
5 | CCC(C)(C)C(=O)O[C@H]1C[C@@H](C)C=C2C=C[C@H](C)[C@H](CC[C@@H]3C[C@@H](O)CC(=O)O3)[C@H]21 [simvastatin, reference compound] |  |  |  |  |  |  | 36.7 ± 4.4 µM | 2.3 |  |  |  | 26.4 ± 2.1 µM |  |  |  |  | IC50 ([6]; Homo sapiens, A549, 72 h, read-out: IC50 (μM) A549): 16.3 ± 0.1 µM
6 | O=C(CCCCCCC(=O)Nc1ccccc1)NO [SAHA, suberoylanalide hydroxamic acid, reference compound] |  |  |  | > 10000 nM | toxic to normal cells |  |  |  |  | toxic to normal cells |  |  | could not protect | attenuated | surface tumor necrosis | no significant inhibition | cell viability of A549 (in words) ([6]; 72 h): killed cancer cells
7 | CC(C)c1c(C(=O)Nc2ccccc2)c(-c2ccccc2)c(-c2ccc(F)cc2)n1CC[C@@H](O)C[C@@H](O)CC(=O)NO [Atorva-HA, (3R,5R)-7-[2-(4-Fluoro-phenyl)-5-isopropyl-3-phenyl-4-phenylcarbamoylpyrrol-1-yl]-3,5-dihydroxy-N-hydroxyheptanamide] | 467 ± 19 nM | 117 nM | 83.7 nM | 9.2 nM | did not have cytotoxicity | not toxic | > 100 µM | >5.7 | < 20 µM | did not have cytotoxicity | not toxic | > 100 µM | could protect the weight loss | attenuated | surface tumor necrosis | potent HMGR inhibition | acetylation of histone H3 and tubulin [10]: promoted the acetylations of histone and tubulin; number and size of tumors ([9]; 100 mg/kg oral): markedly reduced the number and size of tumors; HMGR inhibition in cell lysates compared with lovastatin [11]: equal or even better activity than lovastatin; cell viability of A549 (in words) ([6]; 72 h): reduced; IC50 ([6]; read-out: IC50 (μM) A549, 72 h, MTT assay, listed as Atorva-HA (5)): 17.5 ± 4.7 µM
8 | CC[C@H](C)C(=O)O[C@H]1C[C@@H](C)C=C2C=C[C@H](C)[C@H](CC[C@@H]3C[C@@H](O)CC(=O)O3)[C@H]21 [Lovastatin, lovastatin] |  |  |  |  |  |  |  |  |  |  |  |  | could not protect | not reversed | adenocarcinomas with dysplasia |  | IC50 [5]: 35 ± 5.9 µM; IC50 [7]: 23.2 ± 3.5 µM; colon length ([8]; 50 mg/kg oral): 8.0±0.9 cm; histological examination of colon ([8]; 50 mg/kg oral): adenocarcinomas with dysplasia; bleeding and diarrhea (clinical symptoms) ([8]; oral, Lova-HA 25 or 50 mg/kg, lovastatin 50 mg/kg): not reversed; body weight loss after AOM/DSS ([8]; oral, Lova-HA 25 or 50 mg/kg, lovastatin 50 mg/kg, 5 days a week for 8 weeks): but not lovastatin could protect the weight loss

From US9353061B2, “3,5,N-trihydroxy-alkanamide and derivatives: method for making same and use thereof” (Academia Sinica, priority 2012, dated 2016)
